# Experimental data: US20070116687A1, “Method of modulating cellular transmigration and agents for use therein” (Medvet Science PTY, Ltd., priority 2003, published 2007)
# Entries after “also recorded” stand apart in the source; their conditions may differ.
# B1: IL-4: interleukin-4 (protein, UniProt P05112 25-153, looked up)
# Interleukin-4: HKCDITLQEIIKTLNSLTEQKTLCTELTVTDIFAASKNTTEKETFCRAATVLRQFYSHHEKDTRCLGATAQQFHRHKQLIRFLKRLDRNLWGLAGLNSCPVKEANQSTLENFLERLKTIMREKYSKCSS
# Experiments:
# [1] = tested on: endothelial ERK (HUVEC); test: ERK activation assay (Western blot with phospho-ERK Ab); format: cell-based, human; settings: for endothelial ERK activation by direct treatment of endothelial monolayer: HUVEC treated 15 min, no neutrophils, anti-phospho-ERK Western blot
# Method: A, Endothelial cells treated with 0.4 ng/ml TNFα (TNF), 30 ng/ml interleukin-4 (IL-4), 20 ng/ml oncostatin-M (OsM), 100 ng/ml PMA, or medium alone (Nil) for 15 minutes were assayed for Erk activation. Western blots shown were carried out using an anti-phospho-Erk Ab to detect activated Erk. Equal amounts of protein were loaded onto each lane. B, HUVEC were activated with TNFα for 4 hours or left unstimulated. After washing, either medium containing IL-8 (−) or neutrophils pre-treated with 1 nM IL-8 (+) were added at a 10:1 ratio of neutrophils to HUVEC and Erk activation assayed after 15 min at 37° C. Western blots shown were carried out using antibodies to phospho-Erk (upper panel) or reprobed with an anti-Erk polyclonal antibody after membranes were stripped (lower panel).
# A, Neutrophils, untreated or incubated with a β2 integrin functional blocking antibody, TS1/18 (50 μg/ml), for 20 min at room temperature were added to HUVEC in the presence of 1 nM fMLP for 15 min. HUVEC monolayers were then analysed for Erk activation by Western blotting with an anti-phospho-Erk Ab. B, Neutrophils, untreated or treated with the TS1/18 Ab as in A, were added to 96-well tissue culture dishes in the presence or absence of 1 nM fMLP and neutrophil adhesion was determined. The data is presented as the percentage of neutrophil remaining adherent relative to that added (% adhesion). By ANOVA comparing +/−TS1/18, p=0.0002, n=3.
# Resting HUVEC monolayers incubated with medium (nil), neutrophils (N) or neutrophil conditioned medium (CM), were analysed for Erk activation by Western blotting with an anti-phospho-Erk Ab. A, Neutrophils were stimulated for 15 minutes with 1 nM fMLP and then divided into two aliquots. One aliquot was centrifuged and the top 2/3 taken, carefully avoiding the cellular pellet, and added as conditioned medium (CM). The other aliquot was resuspended and 2/3 taken and added as the equivalent amount of neutrophil preparation (N). B. Conditioned media from neutrophils treated with 1 or 100 nM fMLP (prepared as in A) were added to HUVEC either undiluted (neat) or after diluting 1 in 3 (1/3) in medium. […]
# HUVEC (10^6 cells/well) were seeded in 6-well tissue culture dishes. […] Protein concentration was determined using the Bradford reagent (BioRad) and equal amounts of protein loaded onto a 7.5% SDS polyacrylamide gel. […] Total ERK present was determined by stripping the filter and re-blotting with an antibody against ERK 1/2.
# We therefore investigated whether ERK activation in the endothelium may be occurring under the conditions of the transmigration assay and which parameter(s) present in the assay system were responsible for its activation. Initially, the role of the inducers, TNFα and fMLP, used in the transmigration assay were assessed. […]
# [2] = tested on: neutrophil transmigration across a confluent monolayer of cultured human umbilical vein endothelial cells (HUVEC); test: Neutrophil transmigration assay across HUVEC monolayer on Transwells; format: cell-based
# Method: FIG. 1 is a graphical representation of inhibitors that act on MEK inhibit neutrophil transmigration across endothelium. A, Confluent HUVEC monolayers plated (5×10^4 cells/well) on Transwells were either unstimulated or activated with TNFα (4 ng/ml) for 4 hours. Thirty min prior to the assay some monolayers were treated with PD98059 (45 μM) or DMSO control. Neutrophils (5×10^5 cells/well) were added with either PD98059 or DMSO. Transmigration was assayed across TNFα-activated endothelium (TNF) and unstimulated endothelium with (fMLP) or without (Nil) a gradient of 10 nM fMLP. The assays were carried out in triplicate and 1 representative of 5 experiments shown. An ANOVA was performed looking for an effect of PD98059 compared to DMSO on transmigration: in this experiment p<0.0001 and in the overall series p<0.0001. B, Endothelial monolayers were treated as in A, but the concentration of PD98059 was varied as indicated. The data are presented as percentage of transmigration relative to that across unstimulated endothelium. One representative experiment of 7, each performed in triplicate, is shown. […] C, Endothelial cells on Transwells were left unstimulated or activated with TNFα as in A. Using the standard protocol, U0126 or its solvent, DMSO, were added to the monolayers 30 min prior to the experiment, and then added with the neutrophils. The results from one of two experiments, each performed in triplicate, is shown.
# This was performed as previously described using Transwells (6.5 mm diameter, […] pore size, Costar, Cambridge, Mass.) on 24 well culture trays (Smith et al., 1991, supra). Briefly, 5×10^4 HUVEC (between passages 2 and 5) were seeded in the upper chamber of each Transwell pre-coated with fibronectin (50 μg/mL for 30 minutes) and the cells were grown at 37° C. in 5% CO2 supplemented air to form a confluent monolayer. Neutrophils were added at 5×10^5 cells/well to the top chamber and where indicated chemoattractant was added to the lower chamber. The neutrophils were incubated at 37° C. for 1 h after which the number that had transmigrated into the lower chamber were collected and counted. Transmigration is expressed as a percentage of neutrophils added.
# Neutrophils were counted using one of two methods. Neutrophils retrieved from the lower compartment were either counted directly using a Coulter counter (Model ZF, Coulter, Herts, UK) or using an indirect colourimetric assay based on the conversion of a tetrazolium salt (MTT) to a formazan. Briefly, MTT (0.2 mg/ml, Sigma, St. Louis, […].) was added to the lower chamber and incubated for 4 hours at 37° C. The neutrophils were pelleted by centrifugation, the pellets resuspended in 200 μl acid isopropanol for an hour and the absorbance at 550 nm determined. A standard curve was constructed by serial dilution of the neutrophil preparation and the percentage of neutrophils transmigrating was calculated from this. The two methods used produced results of good fit (least squares fit regression analysis, >95% confidence) (data not shown).
# To identify signalling pathways in the endothelium that are essential for neutrophil transmigration, a screen for their effects on transmigration was carried out using pharmacological inhibitors of various signalling pathways (data not shown). The studies were performed using an in vitro model of neutrophil transmigration across a confluent monolayer of cultured human umbilical vein endothelial cells (HUVEC). Transmigration induced by an exogeneously added chemoattractant gradient and across TNFα-activated endothelium were both examined. […] In general, transmigration across TNFα-activated endothelium was inhibited to a greater extent than transmigration across a gradient of fMLP, with 70-80% inhibition of transmigration across TNFα-activated endothelium compared to only 40-50% inhibition of transmigration across an fMLP gradient. The inhibitory effects of PD98059 were also confirmed using a second MEK inhibitor, U0126 (FIG. 1C).
# [3] = tested on: neutrophil adhesion to TNFα-activated endothelium; test: Neutrophil adhesion assay on HUVEC monolayer; format: cell-based, human
# Method: (§1) A, Chemotaxis assay using neutrophils pretreated for 20 min at room temperature with 30 μM PD98059 or DMSO. Chemotaxis was stimulated by the presence of 10 nM fMLP, or 1 nM IL-8 in the lower chamber; medium alone served as a control (nil). The data represent one of three experiments, each performed in triplicate. ANOVA looking for an effect of PD98059 compared to DMSO on chemotaxis gave p=0.359. B, Confluent HUVEC monolayers were stimulated with TNFα for 4 h, with PD98059 or DMSO added in the final 30 min. The extent of neutrophil adhesion to the endothelium was determined using a standard adhesion assay. The data is presented as the percentage of neutrophil remaining adherent relative to that added (% adhesion). The results represent one of three experiments, each performed in triplicate. (p=0.238, t-test comparing DMSO+TNF with PD+TNF).
# Adhesion assays were performed as previously described (Gamble, J. R., Y. Khew-Goodall, and M. A. Vadas. 1993. J Immunol. 150:4494-4503) with the exception that neutrophils were used. […] After washing the cells were stained with Rose Bengal and total numbers of adherent neutrophils determined by densitometry. The number of adherent neutrophils was computed from a standard curve and expressed as a percentage of the neutrophils added. […]
# [4] = tested on: endothelial ERK (HUVEC); settings: Xia et al. 1998; cited from earlier work
# [5] = tested on: neutrophil chemotaxis; test: Neutrophil chemotaxis assay (Transwells, no HUVEC monolayer); format: cell-based, human; settings: 30 μM PD98059 vs DMSO
# Method: as §1
# Chemotaxis assays were performed using Transwells essentially as in the transmigration assay except that the HUVEC monolayer was omitted. In addition, instead of pre-coating the upper chamber with fibronectin, the lower chamber was pre-coated with gelatin to prevent adhesion of neutrophils. […] Neutrophils that had migrated through the filters after 1 hour incubation at 37° C. were counted. Counts are expressed as a percentage of the total number of cells added. […]
molecule,measurement,setting,value
"CSCC[C@H](NC=O)C(=O)N[C@@H](CC(C)C)C(=O)N[C@@H](Cc1ccccc1)C(=O)O [fMLP, N-formyl-methionyl-leucinyl-phenylalanine]",endothelial ERK activation by direct treatment of endothelial monolayer,[1],did not activate endothelial ERK; also recorded: had no effect on endothelial ERK activation
same,induction of the ERK-activating factor in neutrophils,"[1]; conditioned media of stimulated neutrophils added to HUVEC, phospho-ERK read-out",induced the ERK-activating factor
N#CC(=C(/N)Sc1ccccc1N)/C(C#N)=C(\N)Sc1ccccc1N [U0126],effect on neutrophil transmigration across TNFα-activated endothelium,[2]; TNFα-activated HUVEC,inhibited transmigration across TNFα-activated endothelium to a similar extent as PD 98059
same,effect on neutrophil transmigration induced by a chemoattractant (fMLP) gradient,[2]; unstimulated HUVEC,showed greater potency against fMLP-driven transmigration
TNFα,neutrophil adhesion to endothelium after treatment of the endothelium,"[3]; TNFα treatment of HUVEC, 4 h",stimulated neutrophil adhesion
same,endothelial ERK activation by direct treatment of endothelial monolayer,[1],marginally activated ERK
same,fold activation of ERK (earlier observations),[4],1.5-2.0 fold
COc1cccc(-c2cc(=O)c3ccccc3o2)c1N [PD98059],effect on neutrophil transmigration across TNFα-activated endothelium,[2]; TNFα-activated HUVEC,inhibit in a dose-dependent manner
same,inhibition of transmigration across TNFα-activated endothelium,"[2]; TNFα-activated HUVEC, inhibitor added 30 min before and with neutrophils, 1 h",70-80%
same,effect on neutrophil transmigration induced by a chemoattractant (fMLP) gradient,[2]; unstimulated HUVEC,inhibit in a dose-dependent manner
same,inhibition of transmigration across an fMLP gradient,"[2]; unstimulated HUVEC, fMLP gradient (10 nM), 1 h",40-50%
same,IL-8-stimulated neutrophil chemotaxis,[5]; 1 nM IL-8 in lower chamber,not significantly affected
same,fMLP-stimulated neutrophil chemotaxis,[5]; 10 nM fMLP in lower chamber,not significantly affected
same,neutrophil adhesion to TNFα-activated endothelium in presence of inhibitor,"[3]; HUVEC stimulated with TNFα 4 h, inhibitor in final 30 min",not significantly affected
B1,endothelial ERK activation by direct treatment of endothelial monolayer,[1],marginally activated ERK
